For eleven compounds, IC50 results are on record in patent US20130184222A1, “[…] ACTIVE COMPOSITIONS AND THEIR METHODS OF USE” (AGIOS PHARMACEUTICALS, INC, priority 2010, published 2013).

The structures appear in SMILES notation.

In general, IC50 refers to the concentration needed to halve the response being measured.

In assay [1] the test system is HT1080 cells. In words: Cellular assay: inhibition of 2-HG production in HT1080 cells (LC-MS, 48 hours). Format: cell-based. To be noted: Homo sapiens, HT-1080, 2-HG in media by LC-MS. In outline: (§1)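 HT1080 or U87MG cells (5000/well, DMEM + 10% FBS) seeded overnight, then exposed to compound (0.2% DMSO final) for 48 h; medium 2-HG measured by LC-MS. Viability read by CellTiter-Glo luminescence at 72 h.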

Assay [2] concerns the target IDH1 R132H (Homo sapiens, UniProt O75874, R132H). Put plainly: In vitro assay for IDH1 R132H inhibitors (NADPH/aKG, resazurin detection). Type of assay: biochemical. To be noted: Table 4B; 0.2 μg/ml IDH1 R132H, 50 minutes at room temperature; read-out: IC50, IDH1 R132H Inhibition. In outline:
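Reaction ran 50 min at room temperature in Tris pH 7.5 buffer with 150 mM NaCl, 10 mM MgCl2 and 0.03% BSA. Mix concentrations were 0.2 μg/ml mutant enzyme, 8 uM NADPH and 2 mM aKG. Detection added 30 μM resazurin, with resorufin fluorescence (Ex544/Em590) measured 5 min later.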
In general terms: Alamar Blue is a resazurin reagent that responds to reducing activity.

Assay [3] relates to U87MG cells. In words: Cellular assay: inhibition of 2-HG production in U87MG cells (LC-MS, 48 hours). Type of assay: cell-based. To be noted: Homo sapiens, U-87 MG, 2-HG in media by LC-MS. In outline: as §1

Chain of IDH1 R132H (O75874 whole entry R132H): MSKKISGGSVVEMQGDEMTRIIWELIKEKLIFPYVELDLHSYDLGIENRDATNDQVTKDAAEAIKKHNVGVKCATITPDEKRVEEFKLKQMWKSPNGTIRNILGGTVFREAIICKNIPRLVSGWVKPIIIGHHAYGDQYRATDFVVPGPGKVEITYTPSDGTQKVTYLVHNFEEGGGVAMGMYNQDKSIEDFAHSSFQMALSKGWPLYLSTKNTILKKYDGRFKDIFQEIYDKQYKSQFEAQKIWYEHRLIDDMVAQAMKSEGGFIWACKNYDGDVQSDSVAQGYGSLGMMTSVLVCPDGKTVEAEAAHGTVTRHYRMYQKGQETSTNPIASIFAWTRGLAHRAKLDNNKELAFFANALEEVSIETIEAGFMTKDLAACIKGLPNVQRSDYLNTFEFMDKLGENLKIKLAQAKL

On to `[2H]C1([2H])C([2H])([2H])C([2H])([2H])C([2H])(NC(=O)C(c2ccccc2C)N(C(=O)CNc2ncccc2F)c2cccc(F)c2)C([2H])([2H])C1([2H])[2H]` (stereo not drawn) [Compound 361], for which the IC50 in assay [1] is ≤ 250 nM; in assay [2], ≤ 100 nM; in assay [3] it was ≤ 250 nM.

As to `Cc1ccccc1[C@@H](C(=O)NC1CCCCC1)N(C(=O)[C@H]1CCCN1S(C)(=O)=O)c1cccc(F)c1` [Compound 363], the IC50 in assay [1] was in the range of 1000 to 5000 nM; in assay [2] it was 100 to 1000 nM; in assay [3], 250 to 1000 nM.

Consider `CC(=O)N1CCC[C@H]1C(=O)N(c1cccc(F)c1)[C@H](C(=O)NC1CCCCC1)c1ccccc1C` [Compound 370], for which the figures for the IC50 in assay [1], in assay [2] and in assay [3] were 1000 to 5000 nM, 100 to 1000 nM and 250 to 1000 nM, respectively.

Take `Cc1ccccc1C(C(=O)NC1CCC(F)(F)CC1)N(C(=O)Cn1ccnc1C(F)(F)F)c1cccc(F)c1` (stereo not drawn) [Compound 373]: the 50% inhibitory concentration (IC50) in assay [1] lay within 250 to 1000 nM; in assay [2], 100 to 1000 nM; in assay [3], 250 to 1000 nM.

Consider `COC(=O)NCCC(=O)N(c1cccc(F)c1)C(C(=O)NC1CCCCC1)c1ccccc1C` (stereo not drawn) [Compound 374], for which the IC50 lay in the range of 1000 to 5000 nM in assay [1], 100 to 1000 nM in assay [2] and 1000 to 5000 nM in assay [3].

On to `Cc1ccccc1C(C(=O)NC1CCC(F)(F)CC1)N(C(=O)CNc1cccnc1F)c1cccc(F)c1` (stereo not drawn) [Compound 378], for which the results for the IC50 in assay [1], in assay [2] and in assay [3] were 250 to 1000 nM, ≤ 100 nM and 250 to 1000 nM, respectively.

Take `Cc1ccccc1C(C(=O)NC1CC(F)(F)C1)N(C(=O)CNc1ncccc1F)c1cccc(F)c1` (stereo not drawn) [Compound 379]: the concentration for half-maximal inhibition (IC50) was 250 to 1000 nM in assay [1], 100 to 1000 nM in assay [2] and 250 to 1000 nM in assay [3].

Regarding `Cc1ccccc1C(C(=O)NC1CC(F)(F)C1)N(C(=O)Cn1ccnc1C)c1cccc(F)c1` (stereo not drawn) [Compound 380], the values for the IC50 in assay [1], in assay [2] and in assay [3] were 1000 to 5000 nM, 100 to 1000 nM and ≤ 250 nM, respectively.

In the case of `Cc1ccccc1C(C(=O)NC1CC(F)(F)C1)N(C(=O)CNc1cccnc1F)c1cccc(F)c1` (stereo not drawn) [Compound 381], the IC50 in assay [1] is ≤ 250 nM; in assay [2], ≤ 100 nM; in assay [3], ≤ 250 nM.

Consider `Cc1ccccc1C(C(=O)NC1CCCCC1)N(Cc1cccs1)C(=O)Oc1ccccc1` (stereo not drawn) [Compound 387], for which the results for the IC50 in assay [1], in assay [2] and in assay [3] were 1000 to 5000 nM, 1000 to 10000 nM and > 5000 nM, respectively.

On to `Cc1cnccc1NC(=O)N(Cc1cccs1)C(C(=O)NC1CCCCC1)c1ccccc1C` (stereo not drawn) [Compound 389], for which the 50% inhibitory concentration (IC50) was in the range of 1000 to 5000 nM in assay [1], 100 to 1000 nM in assay [2] and 1000 to 5000 nM in assay [3].
